In data set [1] the target is T1, RVV-V (Daboia siamensis, UniProt P18965). Conditions: two-state fit. As to the method:
The Russel viper venom was purchased from Irula Snake-Catchers Industrial Cooperative Society (ISCICS), Tamil Nadu, India. The RVV-V was purified as described by Shiffman et al., with some changes. Lyophilized Crude venom (100 mg) was dissolved in 1 ml of 50 mM Sodium Acetate buffer (pH 5.5). The solution was centrifuged at 12,000 rpm for 10 minutes at 4°C and the supernatant was loaded to Sephadex S-100 column (FPLC). Peaks containing the RVV-V were pooled and loaded for CM Sepharose FFCation Exchange (Pharmacia) column (equilibrated with 50 mM sodium acetate buffer pH 5.5). Proteins were eluted with 50mM Na-acetate buffer with gradient 0 to 1 M Sodium Chloride. The fractions of RVV-V were pooled, dialyzed in 50 mM sodium-acetate buffer, and concentrated. Further, the binding kinetics was performed for RVV-V with both the peptides (purchased from Genei™) by SPR method.
The SPR is a well-known primary protein-ligand screening method for the measurement of a real-time, label-free detection of biomolecular interactions like protein-peptide, antibody-antigen, and protein-DNA interactions. A small amount of protein is sufficient and the affinity data are more accurate as the recorded Sensorgram is time-dependent and a continuous flow system. In the experiment the ligand is saturated with an immobilized protein followed by washing, and the association constant (Ka), and the dissociation constant (Kd) are obtained from the binding response data. Biacore T200 optical biosensor was used to get the interaction kinetics of RVV-V with the peptides. The purified RVV-V (concentration of 50 μg/ml in 50 mM sodium acetate buffer, pH 5.5) was immobilized on CM5 chip by amine-coupling method. A constant flow rate of 10μl/min was used to activate the surface of the flow cell for 7 min using a 1:1 mixture of 100 mM N-hydroxysuccinimide (NHS) and 100 mM N-ethyl-N-(dimethylaminopropyl)-carbodiimide (EDC) dissolved in water. The RVV-V was injected for 7 min, and the non-activated carboxy methyl groups on the surface were blocked by 7 min injection of 1 M ethanolamine (pH 8.5) and totally 3000 RU of the RVV-V were immobilized on the chip.
Biacore control software was used for obtaining all data by monitoring the change in the refractive index as a function of time at a flow rate of 30 μl/min. A relative quantity of peptide bound to RVV-V was quantified by calculating the amount of net increase in the refractive index over a period as compared to the initial buffer (PBS) response. The inline subtraction is performed during each run. Before changing each peptide and the peptide-concentration, the surface of the sensor chips was washed by running the buffer (PBS) and the chip was regenerated by injecting 10 mM glycine pH 2.5 for 30 sec. The association and the dissociation times are 120 and 300 sec respectively. For both the peptides, the experiment was performed by changing the concentration of the peptides ranging from 62.5 uM to 1 mM.

The target in data set [2] is T1, RVV-V. The following applies: ref [16], [17]; cited from earlier work. An excerpt: In general, serine proteases are robust and highly sensitive for the cleavage sites; they contain catalytic triad or diad in the active site. […] Both these proteins are active against different molecular substrates. The molecular structure and the catalytic triad arrangement of the RVV-V are analogous with that of the thrombin.

For data set [3] the following is noted: ref [16], [17]; cited from earlier work. An excerpt: (§1) Both these proteins are active against different molecular substrates.
For data set [4], the system named is fibrinogen, prothrombin, factor VIII, and FX. The following applies: ref [14], [15]; cited from earlier work.
Text: as §1

For the next data set, the system named is Factor V. Conditions: sites I, II and III of FV; ref [11]; cited from earlier work. An excerpt: Factor V (FV) is a well-studied large protein, consists of six domains, involved in the blood coagulation cascade. […] Both the proteins cleave the FV at three different sites of FV viz., site I (Arg709–Ser710), site II (Arg1018–Thr1019), and site III (Arg1545–Ser1546). Highly glycosylated B domain of FV is removed by these proteases to achieve an active form of FV.

The values that follow come from publication PMC5521794, “Understanding Russell’s viper venom factor V activator’s substrate specificity by surface plasmon resonance and in-silico studies” (PLoS ONE, 2017).

Like-named read-outs stand apart in the source and are kept apart here.

T1 sequence (P18965 25-260): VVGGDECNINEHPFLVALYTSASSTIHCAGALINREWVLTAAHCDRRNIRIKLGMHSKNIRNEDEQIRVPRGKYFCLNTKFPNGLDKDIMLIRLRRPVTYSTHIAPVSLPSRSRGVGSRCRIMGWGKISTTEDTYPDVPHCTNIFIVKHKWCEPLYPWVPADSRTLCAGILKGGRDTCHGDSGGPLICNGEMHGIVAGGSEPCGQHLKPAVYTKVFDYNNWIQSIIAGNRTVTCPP

For 1008KHTHHAPLSPRTFHP1022 [Peptide II], the ka1 at RVV-V [1] (Biacore T200, RVV-V immobilized on CM5 chip (amine coupling, 3000 RU), PBS, 30 μl/min, peptide 62.5 uM to 1 mM, association 120 s, dissociation 300 s) worked out at 760.4 M⁻¹ s⁻¹; on RVV-V [1] (first reaction) it was 760.4 M⁻¹ s⁻¹. The same compound displayed a Kd1 on RVV-V [1] (Biacore T200, RVV-V on CM5 chip, PBS, peptide 62.5 uM to 1 mM, dissociation rate constant of first step) of 2.414 s⁻¹. Also, the kd2 was found to be 0.001942 s⁻¹ on RVV-V [1] (Biacore T200, RVV-V on CM5 chip, PBS, peptide 62.5 uM to 1 mM, second step) and 0.001942 s⁻¹ at RVV-V [1] (second (more stable) complex). Besides, the ka2 on RVV-V [1] (Biacore T200, RVV-V on CM5 chip, PBS, peptide 62.5 uM to 1 mM, second step (conformational change)) was found to be 0.0002809 s⁻¹; at RVV-V [1] (second reaction), 0.0002809 s⁻¹. Further, on RVV-V [1] (first (unstable) complex), the kd1 turned out to be 2.414 s⁻¹.

For `O=C(O)CN(CCN(CC(=O)O)CC(=O)O)CC(=O)O` [EDTA], the “response of RVV-V to serine protease inhibitor” value on RVV-V [2] is listed as “no response”.

For the compound “Russell’s viper venom factor V activator [RVV-V]”, the amidase activity result in data set [3] is reported as “weak amidase activity”. In data set [4], the “effect on structure or activity after prolonged incubation” value is “no effect”. The “cleavage of FV sites” value in the data set with Factor V was “cleaving the site III and does not cleave the other two thrombin-susceptible sites”.
